Data from patent US12577213B2 (NINGBO COMBIREG PHARMACEUTICAL TECHNOLOGY CO., LTD., priority 2020, dated 2026).
Read-outs that look alike come from different tables or passages of the source.

How the values were obtained:
[1] = test system: A549 (non-small cell lung cancer); assay: NCI method SRB growth inhibition, A549; format: cell-based; conditions: Homo sapiens; A549, treated 48 hours, SRB stain
Text: (§1) In this embodiment, the method of National Cancer Institute (NCI) was used to evaluate the anti-tumor activity of the embodiment compounds in the present disclosure. Nine representative cell lines were selected for activity evaluation, including A549 (non-small cell lung cancer), HCT116 (colon cancer), SF295 (central nervous system tumor), LOX-IMVI (melanoma), 786-0 (renal cancer), K562 (leukemia), PC-3 (prostate cancer), OVCAR-3 (ovarian cancer) and HS 578T (breast cancer).
(§2) The specific method was as follows: 60 tumor cell lines of 9 kinds of human cancers were used to evaluate the inhibitory activity of the compound in vitro. A test group, a parallel control group and a vehicle control group were set up. The parallel control group was fixed immediately before the compound was added; the cells in the test group were fixed after being treated with the compound for 48 hours; the vehicle control group was fixed after an equal volume of complete medium was added for 48 hours. Sulforhodamine B (SRB) was used to stain, and the OD value was measured at a wavelength of 515 nm. The specific calculation method was as follows: the OD value of the parallel control group was recorded as Tz, the OD value of the vehicle control group was recorded as C, and the OD value of the test group was recorded as (Ti). If Ti≥Tz, it means that the cells still grow after the drug was added, and the growth rate %=[(Ti−Tz)/(C−Tz)]×100; if Ti<Tz, it means that the cells are killed after the drug was added, and the growth rate %=[(Ti−Tz)/Tz]×100. Three parameters were used to evaluate the anti-tumor activity of compounds in this method: 50% growth inhibitory concentration (GI50): i.e. the compound concentration at [(Ti−Tz)/(C−Tz)]×100=50; complete growth inhibitory concentration (TGI): the compound concentration at Ti=Tz; the drug concentration required to kill 50% of the cells (LC50): i.e. the compound concentration at [(Ti−Tz)/Tz]×100=−50.
(§3) The inhibitory activities of the embodiment compounds on nine representative tumor cell lines were listed in detail in Table 1. Wherein, the GI50 value means “50% growth inhibition rate”, that is, the concentration of the compound to be tested when it can inhibit […] of cell growth; “ND” means not detected.

LOX-IMVI (melanoma) = assay: NCI method SRB growth inhibition, LOX-IMVI; format: cell-based; conditions: Homo sapiens, treated 48 hours, SRB stain
Text: as §1, §2, §3

HS 578T (breast cancer) = assay: NCI method SRB growth inhibition, HS 578T; format: cell-based; conditions: Homo sapiens, HS578T, treated 48 hours, SRB stain
Text: as §1, §2, §3

[2] = test system: SF295 (central nervous system tumor); assay: NCI method SRB growth inhibition, SF295; format: cell-based; conditions: Homo sapiens, SF-295; SF295, treated 48 hours, SRB stain
Text: as §1, §2, §3

[3] = Liver microsomes stability; format: in vitro ADME, human; conditions: 1 μM compound, 1 mg/mL human liver microsomes, 1 mM NADPH; for half-life at 1 μM: read-out: T½ of HLM
Experimental: The compound to be tested with final concentration of 1 μM was incubated with 1 mg/mL of human liver microsomes and 1 mM of NADPH, and a group without NADPH was set as a negative control. The reaction mixture was quenched with methanol at five time points of 0, 5, 15, 30 and 60 min, respectively, then centrifuged at 2500 rpm for 20 min to precipitate proteins, and the resulting supernatant was analyzed by LC-MS/MS. The data was analyzed and the k value and half-life T1/2 was calculated, T1/2(min)=0.693/k.
Wherein, compounds a, b and c are active compounds disclosed in patent No. ZL201610154581.3.

786-0 (renal cancer) = assay: NCI method SRB growth inhibition, 786-0; format: cell-based; conditions: Homo sapiens; 786-0, treated 48 hours, SRB stain
Text: as §1, §2, §3

PC-3 (prostate cancer) = assay: NCI method SRB growth inhibition, PC-3; format: cell-based; conditions: Homo sapiens; PC-3, treated 48 hours, SRB stain
Text: as §1, §2, §3

OVCAR-3 (ovarian cancer) = assay: NCI method SRB growth inhibition, OVCAR-3; format: cell-based; conditions: Homo sapiens; OVCAR-3, treated 48 hours, SRB stain
Text: as §1, §2, §3

K562 (leukemia) = assay: NCI method SRB growth inhibition, K562; format: cell-based; conditions: Homo sapiens; K562, treated 48 hours, SRB stain
Text: as §1, §2, §3

HCT116 (colon cancer) = assay: NCI method SRB growth inhibition, HCT116; format: cell-based; conditions: Homo sapiens, HCT-116; HCT116, treated 48 hours, SRB stain
Text: as §1, §2, §3

Row | Structure (SMILES) | GI50 [1] [nM] | GI50 (LOX-IMVI (melanoma)) [nM] | GI50 (HS 578T (breast cancer)) [nM] | GI50 [2] [nM] | microsomal CLint at 1 μM [3] [µL/min/mg] | half-life at 1 μM ([3]; human, human liver microsomes) [min] | GI50 (786-0 (renal cancer)) [nM] | GI50 (PC-3 (prostate cancer)) [nM] | GI50 (OVCAR-3 (ovarian cancer)) [nM] | GI50 (K562 (leukemia)) [nM] | GI50 (HCT116 (colon cancer)) [nM] | T½ of HLM [3] [min] | half-life at 1 μM [3] [min] | microsomal CLint at 1 μM ([3]; human, human liver microsomes) [µL/min/mg]
1 | [2H]C([2H])([2H])Oc1c(OC)cc(C(=O)Nc2cc3c(cc2Oc2cc(C)cc(C)c2)C(=O)N[C@@H](CC(=O)N(CC)CC)C(=O)N3)c(Cl)c1OC [Compound 2, (S)-2-chloro-N-[3-[2-(diethylamino)-2-oxoethyl]-7-(3,5-dimethylphenoxy)-2,5-dioxo-2,3,4,5-tetrahydro-1H-benzo[e][1,4]diazepin-8-yl]-3,5-dimethoxy-4-(trideuteromethoxy)benzamide] | 13.1 | < 5 | 30.8 | 7.9 | 32 | 21.7 | 11.8 | 5.5 | 6.1 | < 5 | < 5 |  |  | 
2 | [2H]C([2H])([2H])c1cc(Oc2cc3c(cc2NC(=O)c2cc(OC)c(OC)c(OC)c2Cl)NC(=O)[C@H](CC(=O)N(CC)CC)NC3=O)cc(C([2H])([2H])[2H])c1 [Compound 23, (S)-2-chloro-N-[3-[2-(diethylamino)-2-oxoethyl]-7-[3,5-bis(trideuteromethyl)phenoxy]-2,5-dioxo-2,3,4,5-tetrahydro-1H-benzo[e][1,4]diazepin-8-yl]-3,4,5-trimethoxybenzamide] | 11.6 | < 5 | 24.9 | 10.5 | 26.9 | 25.8 | 67.5 | 6.1 | 6.6 | < 5 | < 5 |  |  | 
3 | [2H]C([2H])([2H])c1c(OC)cc(C(=O)Nc2cc3c(cc2Oc2cc(C)cc(C)c2)C(=O)N[C@@H](CC(=O)N(CC)CC)C(=O)N3)c(Cl)c1OC [Compound 3, (S)-2-chloro-N-[3-[2-(diethylamino)-2-oxoethyl]-7-(3,5-dimethylphenoxy)-2,5-dioxo-2,3,4,5-tetrahydro-1H-benzo[e][1,4]diazepin-8-yl]-3,5-dimethoxy-4-(trideuteromethyl)benzamide] | < 5 | 18.4 | 91.9 | 53.2 | 18.1 | 38 | 110 | 43.9 | 28.6 | 8.4 | 11.2 | 38.3 |  | 
4 | [2H]C([2H])([2H])Oc1cc(C(=O)Nc2cc3c(cc2Oc2cc(C)cc(C)c2)C(=O)N(C)[C@@H](CC(=O)N(C)OC)C(=O)N3)c(Cl)c(OC([2H])([2H])[2H])c1OC([2H])([2H])[2H] [Compound 36] | < 5 | < 5 | 8.5 | 10 | 6.8 | 102 | 11.9 | < 5 | < 5 | < 5 | < 5 |  |  | 
5 | [2H]C([2H])([2H])Oc1cc(C(=O)Nc2cc3c(cc2Oc2cc(C)cc(C)c2)C(=O)N(C)[C@@H](CC(=O)N(OC([2H])([2H])[2H])C([2H])([2H])[2H])C(=O)N3)c(Br)c(OC([2H])([2H])[2H])c1OC([2H])([2H])[2H] [Compound 34] | < 5 | < 5 | < 5 | < 5 |  |  | < 5 | < 5 | < 5 | < 5 | < 5 |  | 72.2 | 9.6
6 | [2H]C([2H])([2H])Oc1cc(C(=O)Nc2cc3c(cc2Oc2cc(C)cc(C)c2)C(=O)N(C)[C@@H](CC(=O)N2CCN(C)CC2)C(=O)N3)c(Br)c(OC([2H])([2H])[2H])c1OC([2H])([2H])[2H] [Compound 28] | < 5 | < 5 | < 5 | 18 |  |  | 66 | < 5 | < 5 | < 5 | < 5 |  | 41.8 | 16.8
7 | [2H]C([2H])([2H])Oc1cc(C(=O)Nc2cc3c(cc2Oc2cc(C)cc(C)c2)C(=O)N(C)[C@@H](CC(=O)N2CCC(F)(F)CC2)C(=O)N3)c(Cl)c(OC([2H])([2H])[2H])c1OC([2H])([2H])[2H] [Compound 17, (S)-2-chloro-N-[3-[2-(4,4-difluoropiperidin-1-yl)-2-oxoethyl]-7-(3,5-dimethylphenoxy)-4-methyl-2,5-dioxo-2,3,4,5-tetrahydro-1H-benzo[e][1,4]diazepin-8-yl]-3,4,5-tris(trideuteromethoxy)benzamide] | 15.8 | < 5 | 5.6 | 8 | 34.5 | 20.1 | 10 | < 5 | 8.4 | < 5 | 44.9 |  |  | 
8 | [2H]C([2H])([2H])OC(=O)C[C@@H]1NC(=O)c2cc(Oc3cc(C)cc(C)c3)c(NC(=O)c3cc(OC)c(OC)c(OC)c3Cl)cc2NC1=O [Compound 9, (S)-2-[8-(2-chloro-3,4,5-trimethoxybenzamido)-7-(3,5-dimethylphenoxy)-2,5-dioxo-2,3,4,5-tetrahydro-1H-benzo[e][1,4]diazepin-3-yl]acetic acid trideuteromethyl ester] | 23 | 13.9 | 40.5 | 15.2 | 5.9 | 117 | 44.8 | 13.1 | 8.6 | 17 | 14.8 |  |  | 
9 | [2H]C([2H])([2H])Oc1cc(C(=O)Nc2cc3c(cc2Oc2cc(C)cc(C)c2)C(=O)N(C)[C@@H](CC(=O)N(C)OC)C(=O)N3)c(Br)c(OC([2H])([2H])[2H])c1OC([2H])([2H])[2H] [Compound 32] | < 5 | < 5 | < 5 | 5 |  |  | < 5 | < 5 | < 5 | < 5 | < 5 |  | 24.7 | 28.1
10 | [2H]C([2H])([2H])N1C(=O)c2cc(Oc3cc(C)cc(C)c3)c(NC(=O)c3cc(OC)c(OC)c(OC)c3Br)cc2NC(=O)[C@@H]1CC(=O)N(CC)CC [Compound 18, (S)-2-bromo-N-[3-[2-(diethylamino)-2-oxoethyl]-7-(3,5-dimethylphenoxy)-4-trideuteromethyl-2,5-dioxo-2,3,4,5-tetrahydro-1H-benzo[e][1,4]diazepin-8-yl]-3,4,5-trimethoxybenzamide] | < 5 | < 5 | 15.4 | < 5 | 65.1 | 10.6 | < 5 | < 5 | < 5 | < 5 | < 5 |  |  | 
11 | [2H]C([2H])([2H])Oc1cc(C(=O)Nc2cc3c(cc2Oc2cc(C)cc(C)c2)C(=O)N[C@@H](CC(=O)N(C)OC)C(=O)N3)c(Cl)c(OC([2H])([2H])[2H])c1OC([2H])([2H])[2H] [Compound 35] | < 5 | 5.6 | 16 | 29 | 11.7 | 59.2 | 21.1 | < 5 | < 5 | < 5 | 9.8 |  |  | 
